Type in all cases: in vivo
Assay [1] has as its system ZEA MAYS L. In words: Preemergence herbicidal evaluation, ZEAMX (Corn, Field). The conditions noted are these: rated four to five weeks after treatment. In short, it runs like this:
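Preemergence herbicidal activity on field corn: seeds in potting soil were sown atop roughly one inch of soil in separate pint cups, treated, and grown under standard greenhouse care. Four to five weeks post-treatment, stand, vigor, malformation, size, chlorosis and overall appearance were compared with a control and scored 0-9.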

The test system of assay [2] is GALIUM APARINE. As to the kind of experiment: Preemergence herbicidal evaluation, GALAP (Galium). The conditions noted are these: for GALAP herbicidal rating: rated four to five weeks after treatment; for GALAP rating: four to five weeks after treatment. In short, it runs like this:
(§1)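 Rated 0-9 by visual comparison with control (stand, vigor, malformation, size, chlorosis, overall appearance) four to five weeks after preemergence soil spray. Dose equivalent to about 0.125 to 0.50 kg per hectare, applied in aqueous acetone to freshly seeded cups kept in greenhouse.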

In assay [3] the test system is GLYCINE MAX(L) MERR. CV. WILLIAMS
In words: Postemergence herbicidal evaluation, GLXMAW (Soybean, Williams). Set-up: key to GLXMAW rating / Herbicidal effect rating, GLXMAW / GLXMAW: 0-9 visual rating scale vs untreated control. The essentials: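 Herbicidal injury to Williams soybean was assessed after a postemergence spray of two-week-old seedlings grown in jiffy flats. Compounds were dispersed in an acetone/water (50/50) mixture with 0.5% TWEEN®20 surfactant and applied at 40 psi. After four to five weeks in the greenhouse, stand, vigor, malformation, size and chlorosis were compared against a control on a 0-9 scale, and results from replicate tests were averaged.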

Assay [4] relates to CHENOPODIUM ALBUM, L. As to the kind of experiment: Postemergence herbicidal evaluation, CHEAL (Lambsquarters, Common). In short, it runs like this:
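Postemergence herbicidal activity on Chenopodium album was tested by spraying two-week-old seedlings grown in jiffy flats with compound in acetone/water (50/50) plus 0.5% TWEEN®20, using a 40 psi nozzle. Four to five weeks after treatment, stand, vigor, malformation, size, chlorosis and overall appearance were scored 0-9 relative to controls, with repeat tests averaged.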

Assay [5] relates to CYPERUS IRIA. In words: Preemergence weed control under flooded paddy conditions, CYPIR (Rice Flatsedge). Particulars: for Herbicidal effect rating, CYPIR: 0.500 kg/ha, preemergence, 3-4 weeks after treatment; for CYPIR herbicidal rating: preemergence weeds, rated three to four weeks after treatment. The essentials:
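This preemergence test mimicked flooded paddy conditions: rice flatsedge propagules were sown in the upper 0.5 cm of silt loam in undrained 32 oz. containers (10.5 cm diameter), with water held 1.5 to 3 cm over the soil. After normal greenhouse care, plants were scored 0-9 for stand, vigor, malformation, size, chlorosis and appearance relative to controls.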

The test system of assay [6] is ORYZA SATIVA, L. TEBONNET
In words: Preemergence herbicidal evaluation, ORYSAT (Rice, Tebonnet). Particulars: rated four to five weeks after treatment. In short, it runs like this: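 Preemergence herbicidal activity on Tebonnet rice was assessed using pint cups of seeded potting soil kept under conventional greenhouse care after treatment. Tests ended four to five weeks later. Each cup received a 0-9 rating from visual comparison with a control covering stand, vigor, malformation, size, chlorosis and overall appearance.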

In assay [7] the test system is ORYZA SATIVA, L. TEBONNET
In words: Postemergence herbicidal evaluation, ORYSAT (Rice, Tebonnet). On the set-up: key: 0-9 visual rating scale vs untreated control. The essentials:
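This postemergence greenhouse test used Oryza sativa cv. Tebonnet seedlings grown about two weeks in jiffy flats. Test material in 50/50 acetone/water with 0.5% TWEEN®20 surfactant was applied through a spray nozzle at 40 psi. Four to five weeks later, stand, vigor, malformation, size, chlorosis and overall appearance were rated 0-9 relative to a control, and repeat tests were averaged.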

The subject of assay [8] is SAGITTARIA PYGMAEA, L. In words: Preemergence weed control under flooded paddy conditions, SAGPY (Arrowhead (Pygmaea)). The conditions noted are these: 0.500 kg/ha, preemergence, 3-4 weeks after treatment. In short, it runs like this: (§2)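 In undrained pots of silt loam flooded to 1.5-3 cm, compounds are pipetted into the water before emergence at the equivalent of about 0.5, 0.25, 0.125 and 0.063 kg/ha. Plants are scored 0-9 for stand, vigor, malformation, size and chlorosis at test end (3-4 weeks).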

Assay [9] concerns GLYCINE MAX(L) MERR. CV. WILLIAMS
In words: Preemergence herbicidal evaluation, GLXMAW (Soybean, Williams). The conditions noted are these: rated four to five weeks after treatment. The essentials: as §1

The test system of assay [10] is CASSIA OBTUSIFOLIA, L. In words: Preemergence herbicidal evaluation, CASOB (Sicklepod). The conditions noted are these: for CASOB herbicidal rating: rated four to five weeks after treatment; for CASOB rating: four to five weeks after treatment. The essentials: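 Preemergence herbicidal activity against sicklepod was assessed by planting seed mixed with potting soil atop about one inch of soil in pint cups. After treatment the cups were watered and handled per standard greenhouse practice. Tests ended four to five weeks later, with plant stand, vigor, malformation, size, chlorosis and overall appearance scored 0-9 relative to a control.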

Assay [11] relates to ECHINOCHLOA ORYZOIDES (ARD.)FRITSCH. In words: Preemergence weed control under flooded paddy conditions, ECHORC (Watergrass (Calif.)). Particulars: for Herbicidal effect rating, ECHORC: 0.500 kg/ha, preemergence, 3-4 weeks after treatment; for ECHORC herbicidal rating: preemergence weeds, rated three to four weeks after treatment. The essentials:
as §2

Assay [12] relates to CYPERUS SEROTINUS, ROTTB. As to the kind of experiment: Preemergence weed control under flooded paddy conditions, CYPSE (Flatsedge). The conditions noted are these: 0.500 kg/ha, preemergence, 3-4 weeks after treatment. The essentials: as §2
The test system of assay [13] is […], PRESL. In words: Preemergence weed control under flooded paddy conditions, MOOVA (Monochoria). Particulars: for Herbicidal effect rating, MOOVA: 0.500 kg/ha, preemergence, 3-4 weeks after treatment; for MOOVA herbicidal rating: preemergence weeds, rated three to four weeks after treatment. The essentials: as §2

Molecules are shown by their SMILES.

Compound `COC(=O)Cn1c(=O)n(C)c(=O)n(-c2cc(Oc3ccccn3)ccc2[N+](=O)[O-])c1=O` [Compound 38, Methyl tetrahydro-3-methyl-5-[2-nitro-5-(2-pyridyloxy)phenyl]-2,4,6-trioxo-s-triazine-1(2H)-acetate] gave a ZEAMX herbicidal rating in assay [1] (Rate 0.500 kg/ha) of 2.0. Moreover, in assay [2] (Rate 0.500 kg/ha), the GALAP herbicidal rating is on record as 0.0. The same compound came in with a GLXMAW rating in assay [3] (Rate 0.500 kg/ha) of 0.5. The compound also had a CHEAL rating in assay [4] (Rate 0.500 kg/ha) of 0.0. Besides, the “Herbicidal effect rating, CYPIR” value in assay [5] was found to be 0.0. In assay [6] (Rate 0.500 kg/ha), this compound had an ORYSAT herbicidal rating of 3.0. The same compound had an ORYSAT rating in [7] (Rate 0.500 kg/ha) of 0.0. Moreover, the “Herbicidal effect rating, SAGPY” value in [8] is on record as 0.0. The GLXMAW herbicidal rating in [9] (Rate 0.500 kg/ha) was found to be 1.0. For the same compound, the CASOB herbicidal rating in [10] (Rate 0.500 kg/ha) is 0.0. The “Herbicidal effect rating, ECHORC” value in assay [11] is 0.0. The “Herbicidal effect rating, CYPSE” value in assay [12] is 0.0. In assay [13], the “Herbicidal effect rating, MOOVA” value worked out at 0.0.

As for `COC(=O)Cn1c(=O)n(C)c(=O)n(-c2cc(Oc3c(F)cc(C(F)(F)F)cc3Cl)ccc2Br)c1=O` [Compound 2, Methyl 3-{2-bromo-5-[(2-chloro-α,α,α,6-tetrafluoro-p-tolyl)oxy]phenyl}tetrahydro-5-methyl-2,4,6-trioxo-s-triazine-1(2H)-acetate], the GALAP rating in assay [2] (Rate 0.125 kg/ha), in [2] (Rate 0.250 kg/ha) and in assay [2] (Rate 0.500 kg/ha) was 9.0 each time. Also, the “Herbicidal effect rating, GLXMAW” value in assay [3] (0.063 kg/ha) came out at 6.9; in assay [3] (0.125 kg/ha) it was 7.2; in [3] (0.250 kg/ha), 8.0; in assay [3] (0.500 kg/ha) it was 8.3. The “Herbicidal effect rating, CHEAL” value in [4] (0.063 kg/ha) is given as 8.8; in [4] (0.125 kg/ha), 8.7; in [4] (0.250 kg/ha), 8.5; in assay [4] (0.500 kg/ha), 8.5. In addition, the CYPIR herbicidal rating in assay [5] (Rate 0.063 kg/ha), in [5] (Rate 0.125 kg/ha), in assay [5] (Rate 0.250 kg/ha) and in assay [5] (Rate 0.500 kg/ha) was 9.0 throughout. The “Herbicidal effect rating, ORYSAT” value in assay [7] (0.063 kg/ha) is on record as 6.3; in [7] (0.125 kg/ha) it was 6.3; in assay [7] (0.250 kg/ha) it was 7.0; in [7] (0.500 kg/ha), 7.5. Moreover, the CASOB rating in assay [10] (Rate 0.125 kg/ha), in [10] (Rate 0.250 kg/ha) and in assay [10] (Rate 0.500 kg/ha) was 9.0 in each case. The ECHORC herbicidal rating in [11] (Rate 0.063 kg/ha), in assay [11] (Rate 0.125 kg/ha), in [11] (Rate 0.250 kg/ha) and in [11] (Rate 0.500 kg/ha) was 9.0 throughout. In addition, the MOOVA herbicidal rating in [13] (Rate 0.063 kg/ha), in [13] (Rate 0.125 kg/ha), in assay [13] (Rate 0.250 kg/ha) and in assay [13] (Rate 0.500 kg/ha) was 9.0 throughout.

In [1] (Rate 0.500 kg/ha), `COC(=O)Cn1c(=O)n(C)c(=O)n(-c2cc(Oc3cc(Cl)cc(Cl)c3)ccc2[N+](=O)[O-])c1=O` [Compound 35, Methyl 3-[5-(3,5-dichlorophenoxy)-2-nitrophenyl]tetrahydro-5-methyl-2,4,6-trioxo-s-triazine-1(2H)-acetate] gave a ZEAMX herbicidal rating of 0.0. In assay [2] (Rate 0.500 kg/ha), this compound registered a GALAP herbicidal rating of 0.0. Further, the CHEAL rating in assay [4] (Rate 0.125 kg/ha), in assay [4] (Rate 0.250 kg/ha) and in [4] (Rate 0.500 kg/ha) was 0.0 in each case. Moreover, the “Herbicidal effect rating, CYPIR” value in [5] was determined as 0.0. Besides, in assay [6] (Rate 0.500 kg/ha), the ORYSAT herbicidal rating came out at 0.0. For the same compound, the “Herbicidal effect rating, SAGPY” value in [8] is 0.0. In assay [9] (Rate 0.500 kg/ha), this compound displayed a GLXMAW herbicidal rating of 1.0. Also, in [10] (Rate 0.500 kg/ha), the CASOB herbicidal rating amounted to 0.0. Besides, the “Herbicidal effect rating, ECHORC” value in [11] was 0.0. In addition, the “Herbicidal effect rating, CYPSE” value in [12] is reported as 0.0. Besides, the “Herbicidal effect rating, MOOVA” value in [13] is 0.0.

Regarding `COC(=O)Cn1c(=O)n(C)c(=O)n(-c2cc(Oc3ccc(SC)cc3Cl)ccc2[N+](=O)[O-])c1=O` [Compound 34, Methyl 3-{5-[2-chloro-4-(methylthio)-phenoxy]-2-nitrophenyl}tetrahydro-5-methyl-2,4,6-trioxo-s-triazine-1(2H)-acetate], the ZEAMX herbicidal rating in [1] (Rate 0.125 kg/ha), in assay [1] (Rate 0.250 kg/ha) and in assay [1] (Rate 0.500 kg/ha) was 0.0 in each case. Also, the “Herbicidal effect rating, CYPIR” value in assay [5] was 0.0. Moreover, the ORYSAT herbicidal rating in assay [6] (Rate 0.125 kg/ha), in assay [6] (Rate 0.250 kg/ha) and in [6] (Rate 0.500 kg/ha) was 0.0 each time. The “Herbicidal effect rating, SAGPY” value in assay [8] stood at 0.0. For the same compound, the GLXMAW herbicidal rating in assay [9] (Rate 0.125 kg/ha), in [9] (Rate 0.250 kg/ha) and in assay [9] (Rate 0.500 kg/ha) was 0.0 each time. Besides, the CASOB herbicidal rating in assay [10] (Rate 0.125 kg/ha), in assay [10] (Rate 0.250 kg/ha) and in assay [10] (Rate 0.500 kg/ha) was 0.0 each time. Besides, the “Herbicidal effect rating, ECHORC” value in assay [11] stood at 0.0. Further, the “Herbicidal effect rating, CYPSE” value in assay [12] was 0.0. Besides, in assay [13], the “Herbicidal effect rating, MOOVA” value is recorded as 0.0.

Values taken from patent publication EP0745595A1, “3-(3-Aryloxyphenyl)-1-(substituted methyl)-s-triazine-2,4,6-oxo or thiotrione herbicidal agents” (American Cyanamid Company, priority 1995, dated 1996).
